Assay results published in ChEMBL document CHEMBL3785006, “Discovery of 2-Indole-acylsulfonamide Myeloid Cell Leukemia 1 (Mcl-1) Inhibitors Using Fragment-Based Methods” (J Med Chem, 2016).

What was measured:
[1] = biological target: T1, Induced myeloid leukemia cell differentiation protein Mcl-1 (Homo sapiens, UniProt Q07820)
[2] = biological target: Bcl-2-like protein 1 (Homo sapiens, UniProt Q07817)
[3] = biological target: T1, Induced myeloid leukemia cell differentiation protein Mcl-1; remark: listed apart in the source
[4] = biological target: T1, Induced myeloid leukemia cell differentiation protein Mcl-1; remark: listed apart in the source
[5] = biological target: T1, Induced myeloid leukemia cell differentiation protein Mcl-1; remark: listed apart in the source

Bcl-2-like protein 1, sequence (Q07817 whole entry): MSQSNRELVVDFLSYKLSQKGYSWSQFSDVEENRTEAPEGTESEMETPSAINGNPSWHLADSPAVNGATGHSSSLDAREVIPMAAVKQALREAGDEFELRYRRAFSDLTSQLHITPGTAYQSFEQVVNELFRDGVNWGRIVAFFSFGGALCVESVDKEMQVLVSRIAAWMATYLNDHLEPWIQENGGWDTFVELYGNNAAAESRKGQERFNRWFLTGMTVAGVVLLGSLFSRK
T1 sequence (Q07820 whole entry): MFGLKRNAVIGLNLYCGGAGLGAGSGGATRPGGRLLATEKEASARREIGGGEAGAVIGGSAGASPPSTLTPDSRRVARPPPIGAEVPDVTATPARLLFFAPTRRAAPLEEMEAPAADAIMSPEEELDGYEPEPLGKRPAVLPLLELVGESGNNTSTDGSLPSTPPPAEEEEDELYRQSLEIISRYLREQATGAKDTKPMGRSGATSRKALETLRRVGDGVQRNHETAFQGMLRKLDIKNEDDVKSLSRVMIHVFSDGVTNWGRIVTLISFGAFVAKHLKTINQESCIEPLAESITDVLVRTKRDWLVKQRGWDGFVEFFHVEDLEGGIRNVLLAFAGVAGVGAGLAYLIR

| Ki [1] [µM] | Ki [2] [µM] | Ki [3] [µM] | Ki [4] [µM] | Kd [5] [µM] | Compound |
| --- | --- | --- | --- | --- | --- |
| 0.0056 | 1.57 | < 0.01 | 0.092 |  | Cc1cc(OCCCc2c(C(=O)NS(=O)(=O)c3cccc(CNC(=O)CC(C)C)c3)[nH]c3c(-c4c(C)nn(C)c4C)c(Cl)ccc23)cc(C)c1Cl |
| 0.0025 | 0.943 | < 0.01 | 0.226 |  | Cc1cc(OCCCc2c(C(=O)NS(=O)(=O)c3ccnc(N(C)CCc4ccccc4)c3)[nH]c3c(-c4c(C)nn(C)c4C)c(Cl)ccc23)cc(C)c1Cl |
| 0.001 | 0.997 | < 0.01 | 0.061 |  | Cc1cc(OCCCc2c(C(=O)NS(=O)(=O)c3ccnc(NC4Cc5ccccc5C4)c3)[nH]c3c(-c4c(C)nn(C)c4C)c(Cl)ccc23)cc(C)c1Cl |
| 0.016 | > 50 | < 0.01 | 0.054 |  | Cc1cc(OCCCc2c(C(=O)NS(=O)(=O)c3cccc(CNC(=O)C(C)C)c3)[nH]c3c(-c4c(C)nn(C)c4C)c(Cl)ccc23)cc(C)c1Cl |
| 0.0056 | 4.47 | < 0.01 | 0.179 |  | Cc1cc(OCCCc2c(C(=O)NS(=O)(=O)c3ccnc(NCCC(C)C)c3)[nH]c3c(-c4c(C)nn(C)c4C)c(Cl)ccc23)cc(C)c1Cl |
|  |  |  |  | 1500 | Oc1ccccc1-c1cc(C(F)(F)C(F)(F)F)[nH]n1 |
| 0.0085 | > 50 | < 0.01 | 0.02 |  | Cc1cc(OCCCc2c(C(=O)NS(=O)(=O)c3ccc(C(=O)NCc4ccncc4)o3)[nH]c3c(-c4c(C)nn(C)c4C)c(Cl)ccc23)cc(C)c1Cl |
| 0.0024 | > 50 | < 0.01 | 0.084 |  | Cc1cc(OCCCc2c(C(=O)NS(=O)(=O)c3ccc(C(=O)NCc4ccccc4)o3)[nH]c3c(-c4c(C)nn(C)c4C)c(Cl)ccc23)cc(C)c1Cl |
| 0.0012 | 1.11 | < 0.01 | 0.078 |  | Cc1cc(OCCCc2c(C(=O)NS(=O)(=O)c3ccnc(NCCc4ccccc4)c3)[nH]c3c(-c4c(C)nn(C)c4C)c(Cl)ccc23)cc(C)c1Cl |
| 0.0029 | 1.4 | < 0.01 | 0.069 |  | Cc1cc(OCCCc2c(C(=O)NS(=O)(=O)c3cccc(CNC(=O)c4ccoc4)c3)[nH]c3c(-c4c(C)nn(C)c4C)c(Cl)ccc23)cc(C)c1Cl |
| 0.0111 | 9.07 | < 0.01 | 0.042 |  | CC(=O)NCc1cccc(S(=O)(=O)NC(=O)c2[nH]c3c(-c4c(C)nn(C)c4C)c(Cl)ccc3c2CCCOc2cc(C)c(Cl)c(C)c2)c1 |
| 0.01 | > 50 | < 0.01 | 0.091 |  | Cc1cc(OCCCc2c(C(=O)NS(=O)(=O)c3cccc(CNC(=O)c4cccn4C)c3)[nH]c3c(-c4c(C)nn(C)c4C)c(Cl)ccc23)cc(C)c1Cl |
